Several values for one entry are separate records, joined by “and”; a condition that tells them apart may be missing. Equal values may be shown once. Each block holds one molecule with its values, some of them ahead of it.
Assays:
[1] = target: HSA (Homo sapiens, UniProt P02768); assay: HSA affinity determination on immobilized-HSA microcolumns; assay type: binding; settings: HSA microcolumn, phosphate buffer pH 7.4, room temperature
Text: HSA affinity determination. HSA was immobilized to HPLC-grade silica by the Schiff base method as described previously and were packed into 10 mm×2.1 mm i.d. microcolumns. See Chen J, Hage D S. Quantitative studies of allosteric effects by biointeraction chromatography: analysis of protein binding for low-solubility drugs. Anal Chem. 2006:78:2672-2683 and Matsuda R, Anguizola J, Hoy K S, Hage D S. Analysis of drug-protein interactions by high-performance affinity chromatography: interactions of sulfonyl urea drugs with normal and glycated human serum albumin. Methods Mol Biol. 2015; 1286:255-277, each of which is incorporated herein by reference. The protein content of these columns was approximately 60 mg HSA per gram of silica. See Zheng X, Podariu M, Bi C, Hage D S. Development of enhanced capacity affinity microcolumn by using a hybrid of protein cross-linking/modification and immobilization. J. Chromatogr A. 2015; 1400:82-90, incorporated herein by reference. Control microcolumns were prepared in the same manner but with no HSA being added during the immobilization step. The retention factor for each compound was measured on both an HSA microcolumn and a control column by injecting 5 μL samples that contained approximately 50 μM of the compound in 0.067M potassium phosphate buffer (pH 7.4). All samples were injected in triplicate at room temperature and at 1.0 mL/min, with the phosphate buffer used as the mobile phase. Similar injections were made with samples containing sodium nitrate, which was used as a void volume marker. Elution of the injected compounds was monitored by absorbance detection. The dissociation constant (Kd) for each compound with HSA estimated by using the measured retention factors, after correcting for any observed retention on the control column, along with the estimated content of active HSA in the column, as based on injections made with warfarin and L-tryptophan (i.e., probes for Sudlow sites I and II of HSA). See Chen J, Hage D S. Anal Chem. 2006:78:2672-2683 (cited above) and Joseph K S, Hage D S. The effects of glycation on the binding of human serum albumin to warfarin and L-tryptophan. J Pharm Biomed Anal. 2010; 53:811-818, incorporated herein by reference.

[2] = target: T1, PSMA on LNCaP cells (Homo sapiens, UniProt Q04609); assay: Multi-concentration competitive binding assay against 99mTc-MIP-1427 on LNCaP cells; settings: non-radioactive ligands vs 1 nM 99mTc-MIP-1427, LNCaP cells, 1 h
T1 construct: host or cells: LNCaP
T1 sequence (Q04609 whole entry): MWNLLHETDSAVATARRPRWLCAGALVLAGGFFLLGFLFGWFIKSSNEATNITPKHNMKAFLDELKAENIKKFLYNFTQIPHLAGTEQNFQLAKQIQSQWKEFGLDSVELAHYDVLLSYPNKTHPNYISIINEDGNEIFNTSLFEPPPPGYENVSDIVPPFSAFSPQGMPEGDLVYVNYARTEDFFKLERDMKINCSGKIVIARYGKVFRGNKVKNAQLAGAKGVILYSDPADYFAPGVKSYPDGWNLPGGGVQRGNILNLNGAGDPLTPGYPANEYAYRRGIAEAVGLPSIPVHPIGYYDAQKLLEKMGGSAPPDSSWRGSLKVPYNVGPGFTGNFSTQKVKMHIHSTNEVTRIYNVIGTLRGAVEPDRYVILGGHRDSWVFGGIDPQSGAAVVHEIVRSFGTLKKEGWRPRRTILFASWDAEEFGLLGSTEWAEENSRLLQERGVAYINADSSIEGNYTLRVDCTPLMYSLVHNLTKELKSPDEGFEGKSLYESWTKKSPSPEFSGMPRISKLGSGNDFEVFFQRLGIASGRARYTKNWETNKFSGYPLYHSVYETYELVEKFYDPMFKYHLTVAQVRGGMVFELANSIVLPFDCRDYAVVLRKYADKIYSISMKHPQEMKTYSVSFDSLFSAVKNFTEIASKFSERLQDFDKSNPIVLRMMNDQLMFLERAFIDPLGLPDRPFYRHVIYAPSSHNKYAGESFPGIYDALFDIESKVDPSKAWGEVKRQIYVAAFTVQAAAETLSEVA
Description: Cell Culture. […] Cell culture supplies were from Invitrogen unless otherwise noted.
In vitro determination of IC50. […] Eur J Nucl Med Mol Imaging. 2017; 44, 647-661, incorporated herein by reference. […] The cells were incubated for 1 h with 1 nM ^99mTc-MIP-1427 in serum-free RPMI-1640 medium in the presence of 0.1-10,000 nM test compounds. […] Cells were harvested from the plates and transferred to tubes for radioactive counting using a Packard Cobra II Gamma Counter. IC50 values were determined by non-linear regression using GraphPad Prism software.

[3] = salivary glands, radioligand therapy; cited from earlier work
[4] = system: LNCaP cell xenografts; assay: Tissue distribution of 131I-labeled compounds in mice bearing LNCaP xenografts; settings: male, NCr-nu/nu, mouse, in vivo
Description: Inoculation of mice with xenografts. All animal studies were approved by the Institutional Animal Care and Use Committee of Weill Cornell Medicine and were undertaken in accordance with the guidelines set forth by the USPHS Policy on Humane Care and Use of Laboratory Animals. Animals were housed under standard conditions in approved facilities with 12 h light/dark cycles. Food and water was provided ad libitum throughout the course of the studies. Male inbred athymic nu/nu mice were purchased from The Jackson Laboratory. For inoculation in mice, LNCaP cells were suspended at 4×10^7 cells/mL in a 1:1 mixture of PBS:Matrigel (BD Biosciences). Each mouse was injected in the left flank with 0.25 mL of the cell suspension. The mice were imaged when the tumors reached approximately 200-400 mm^3, while biodistributions were conducted when tumors were in the range 100-400 mm^3.
Tissue Distribution Studies. A quantitative analysis of the tissue distribution of ^131I-labeled compounds was performed in separate groups of male NCr-nu/nu mice bearing LNCaP cell xenografts administered via the tail vein as a bolus injection (approximately 370 kBq (10 μCi)/mouse) in a volume of 0.05-0.1 mL of saline solution containing 2.5% v/v DMSO. The animals (n=3-5/time point) were euthanized by asphyxiation with CO2 at the indicated time points after injection. Tissues, including blood, heart, lungs, liver, spleen, pancreas, kidneys, stomach, large and small intestines (with contents), skeletal muscle, bone, and tumor, were dissected, excised, weighed wet (Sartorius analytical balance), and counted in a Wizard automated […] (Perkin Elmer). A 1% ID/g standard was counted with the tissue samples. Tissue time-radioactivity levels expressed as percent injected dose per gram of tissue (% ID/g) were determined. Blood pharmacokinetics were modeled as a dual compartment system using bi-exponential least-squares regression fit to the data. Regression method was implemented in MATLAB R2015b (MathWorks, Natick, MA).

[5] = in vivo; cited from earlier work

Chain of HSA (P02768 25-609): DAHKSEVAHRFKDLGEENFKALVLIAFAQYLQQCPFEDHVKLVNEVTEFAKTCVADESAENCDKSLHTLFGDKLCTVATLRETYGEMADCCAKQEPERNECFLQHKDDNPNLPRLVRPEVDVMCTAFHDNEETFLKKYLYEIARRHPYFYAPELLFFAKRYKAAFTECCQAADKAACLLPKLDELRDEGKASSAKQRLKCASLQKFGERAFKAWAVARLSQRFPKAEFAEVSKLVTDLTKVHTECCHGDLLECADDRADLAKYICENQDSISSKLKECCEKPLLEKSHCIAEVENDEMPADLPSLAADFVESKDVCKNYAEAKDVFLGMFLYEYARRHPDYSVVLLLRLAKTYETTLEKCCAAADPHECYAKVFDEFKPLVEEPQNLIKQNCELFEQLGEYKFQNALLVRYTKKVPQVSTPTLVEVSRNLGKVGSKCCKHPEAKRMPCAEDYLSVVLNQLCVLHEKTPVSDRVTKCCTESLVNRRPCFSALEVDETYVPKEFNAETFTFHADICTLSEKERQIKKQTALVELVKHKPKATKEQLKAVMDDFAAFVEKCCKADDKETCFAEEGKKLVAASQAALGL

Molecule: O=C(O)CCC(NC(=O)N[C@@H](CCCCNC(=O)Nc1ccc([131I])cc1)C(=O)O)C(=O)O (some centres unmarked) [^131I-RPS-001]
Toxicity reported in patients [3]: dose-limiting toxicity to the salivary glands
Blood t1/2 for the distribution phase [4]: 2.17 h
Blood t1/2 for the elimination phase [4]: 20.38 h
Initial kidney uptake [4]: > 100 % ID/g
Time post injection at which T/K ratio reaches 3 [4]: ~96 h
Kidney uptake ([4]; 24 h): 65.24±22.61 % ID/g
Large intestine uptake ([4]; 24 h): 2.35±1.26 % ID/g
Spleen uptake ([4]; 24 h): 2.41±1.40 % ID/g
Tumor uptake ([4]; 24 h): 19.81±6.16 % ID/g
Kidney uptake ([4]; 96 h): 2.12±2.47 % ID/g
Tumor uptake ([4]; 96 h): 10.21±4.30 % ID/g

Molecule: O=C(O)CCC(NC(=O)NC(CCCCNC(=O)CCCc1ccc([131I])cc1)C(=O)O)C(=O)O (centres unmarked) [^131I-RPS-005]
Kd [1]: 890 nM
Blood activity ([4]; 24 h): 21.35±3.99 % ID/g
Heart uptake ([4]; 24 h): 4.40±0.74 % ID/g
Kidney uptake ([4]; 24 h): 39.09±2.96 % ID/g
Liver uptake ([4]; 24 h): 3.41±0.56 % ID/g
Lungs uptake ([4]; 24 h): 8.87±0.74 % ID/g
Tumor uptake ([4]; 24 h): 9.37±1.56 % ID/g
Blood activity ([4]; 96 h): 15.57±3.98 % ID/g
Tumor uptake ([4]; 96 h): 10.82±2.64 % ID/g

Molecule: O=C(O)CC[C@H](NC(=O)NC(CCCCNC(=O)c1ccc([211At])cc1)C(=O)O)C(=O)O (stereo partly drawn) [^211At-6, (2S)-2-(3-(1-carboxy-5-(4-^211At-astatobenzamido)pentyl)ureido)-pentanedioic acid]
Nephrotoxicity [5]: dose-limiting, irreversible nephrotoxicity

Molecule: O=C([O-])CC[C@H](NC(=O)N[C@@H](CCCCNC(=O)[C@H](Cc1ccc2ccccc2c1)NC(=O)[C@H]1CC[C@H](CNC(=O)CN2CCN(CC(=O)[O-])CCN(CC(=O)[O-])CCN(CC(=O)[O-])CC2)CC1)C(=O)[O-])C(=O)[O-].[225Ac].[H+].[H+].[H+] [^225Ac-PSMA-617]
Toxicity reported in patients [3]: severe and sustained xerostomia

Molecule: (((S)-1-Carboxy-4-(2-(4-iodophenyl)acetamido)pentyl)carbamoyl)-L-glutamic acid [RPS-023]
Kd [1]: 53200 nM
IC50 [2]: 10 nM

Molecule: (((S)-1-Carboxy-4-(3-(4-iodophenyl)propanamido)pentyl)carbamoyl)-L-glutamic acid [RPS-022]
Kd [1]: 22900 nM
IC50 [2]: 10 nM

Molecule: (((S)-1-Carboxy-4-(4-(4-iodophenyl)butanamido)pentyl)carbamoyl)-L-glutamic acid [RPS-020]
Kd [1]: 2100 nM
IC50 [2]: 8 nM

Second part, the molecule after the results:

Kd [1]: 19200 nM
Molecule: O=C(O)CC[C@H](NC(=O)N[C@@H](CCCCNC(=O)Nc1ccc(I)cc1)C(=O)O)C(=O)O [RPS-001, reference compound]

Kd [1]: 980 nM
IC50 [2]: 4 nM
Molecule: O=C(O)CC[C@H](NC(=O)N[C@@H](CCCCNC(=O)CCCc1ccc(I)cc1)C(=O)O)C(=O)O [RPS-005, (((S)-1-Carboxy-5-(4-(4-iodophenyl)butanamido)pentyl)carbamoyl)-L-glutamic acid]

Kd [1]: < 1000 nM
Kd for HSA [1]: could not be eluted from the column
IC50 [2]: 15 nM
Molecule: O=C(O)CC[C@H](NC(=O)N[C@@H](CCC(=O)N[C@@H](CCCCNC(=O)CCCc1ccc(I)cc1)C(=O)O)C(=O)O)C(=O)O [RPS-025, (3S,7S,12S)-21-(4-iodophenyl)-5,10,18-trioxo-4,6,11,17-tetraazahenicosane-1,3,7,12-tetracarboxylic acid]

Kd [1]: 26600 nM
IC50 [2]: 40 nM
Molecule: O=C(O)CC[C@H](NC(=O)N[C@@H](CCCCNC(=O)CCc1ccc(I)cc1)C(=O)O)C(=O)O [RPS-026, (((S)-1-Carboxy-5-(3-(4-iodophenyl)propanamido)pentyl)carbamoyl)-L-glutamic acid]

Kd [1]: 11000 nM and 11200 nM
IC50 [2]: 15 nM
Molecule: O=C(O)CC[C@H](NC(=O)N[C@@H](CCCCNC(=O)Cc1ccc(I)cc1)C(=O)O)C(=O)O [RPS-027, (((S)-1-Carboxy-5-(2-(4-iodophenyl)acetamido)pentyl)carbamoyl)-L-glutamic acid]

From patent publication US20260091008A1, “DOUBLE TARGETED CONSTRUCTS TO AFFECT TUMOR KILL” (Cornell University, priority 2016, published 2026)
